Test results: ChEMBL document CHEMBL1153210, “Synthesis, spectral analysis and in vitro microbiological evaluation of 3-(3-alkyl-2,6-diarylpiperin-4-ylidene)-2-thioxoimidazolidin-4-ones as a new class of antibacterial and antifungal agents” (2010)
≈ marks a conversion by molar mass, not a printed value. Calls of active or inactive are those of the source. No cut-off for these calls is given here.

Assays:
Aspergillus flavus [1] = experiment: Antifungal activity against Aspergillus flavus after 72 to 96 hrs by twofold serial dilution method; format: functional
Candida [2] = experiment: Antifungal activity against Candida 6 after 72 to 96 hrs by twofold serial dilution method; format: functional
Candida albicans = experiment: Antifungal activity against Candida albicans after 72 to 96 hrs by twofold serial dilution method; format: functional
Candida [3] = experiment: Antifungal activity against Candida 51 after 72 to 96 hrs by twofold serial dilution method; format: functional
Vibrio cholerae = experiment: Antibacterial activity against Vibrio cholerae after 24 hrs by twofold serial dilution method; format: functional
Pseudomonas aeruginosa = experiment: Antibacterial activity against Pseudomonas aeruginosa after 24 hrs by twofold serial dilution method; format: functional
Staphylococcus aureus [4] = experiment: Antibacterial activity against Staphylococcus aureus after 24 hrs by twofold serial dilution method; format: functional
Streptococcus = experiment: Antibacterial activity against beta-Hemolytic streptococcus after 24 hrs by twofold serial dilution method; format: functional
Escherichia coli [5] = experiment: Antibacterial activity against Escherichia coli after 24 hrs by twofold serial dilution method; format: functional
Candida [6] = experiment: Antifungal activity against Candida 51 at 200 ug/ml after 72 to 96 hrs by twofold serial dilution method; format: functional, organism-based
Staphylococcus aureus [7] = experiment: Antibacterial activity against Staphylococcus aureus at 200 ug/ml after 24 hrs by twofold serial dilution method; format: functional, organism-based
Escherichia coli [8] = experiment: Antibacterial activity against Escherichia coli at 200 ug/ml after 24 hrs by twofold serial dilution method; format: functional, organism-based
Aspergillus flavus [9] = experiment: Antifungal activity against Aspergillus flavus at 200 ug/ml after 72 to 96 hrs by twofold serial dilution method; format: functional, organism-based

## OC(Cn1cncn1)(Cn1cncn1)c1ccc(F)cc1F [FLUCONAZOLE]
Aspergillus flavus [1]
  MIC: 50 µg/mL (≈ 163 µM)
Candida [2]
  MIC: 25 µg/mL (≈ 81.6 µM)
Candida albicans
  MIC: 50 µg/mL (≈ 163 µM)
Candida [3]
  MIC: 25 µg/mL (≈ 81.6 µM)

## CC1/C(=N/N2C(=O)CNC2=S)CC(c2ccccc2)NC1c1ccccc1 (configuration not stated)
Vibrio cholerae
  MIC: 100 µg/mL (≈ 264 µM)
Aspergillus flavus [1]
  MIC: 50 µg/mL (≈ 132 µM)
Candida [2]
  MIC: 50 µg/mL (≈ 132 µM)
Pseudomonas aeruginosa
  MIC: 50 µg/mL (≈ 132 µM)
Staphylococcus aureus [4]
  MIC: 200 µg/mL (≈ 528 µM)
Candida albicans
  MIC: 50 µg/mL (≈ 132 µM)
Candida [3]
  MIC: 50 µg/mL (≈ 132 µM)
Streptococcus
  MIC: 100 µg/mL (≈ 264 µM)
Escherichia coli [5]
  MIC: 50 µg/mL (≈ 132 µM)

## COc1ccc(C2C/C(=N\N3C(=O)CNC3=S)C(C)C(c3ccc(OC)cc3)N2)cc1 (configuration not stated)
Vibrio cholerae
  MIC: 25 µg/mL (≈ 57 µM)
Aspergillus flavus [1]
  MIC: 12.5 µg/mL (≈ 28.5 µM)
Candida [2]
  MIC: 12.5 µg/mL (≈ 28.5 µM)
Pseudomonas aeruginosa
  MIC: 25 µg/mL (≈ 57 µM)
Staphylococcus aureus [4]
  MIC: 50 µg/mL (≈ 114 µM)
Candida albicans
  MIC: 50 µg/mL (≈ 114 µM)
Candida [3]
  MIC: 12.5 µg/mL (≈ 28.5 µM)
Streptococcus
  MIC: 25 µg/mL (≈ 57 µM)
Escherichia coli [5]
  MIC: 100 µg/mL (≈ 228 µM)

## O=C(O)c1cn(C2CC2)c2cc(N3CCNCC3)c(F)cc2c1=O [CIPROFLOXACIN]
Vibrio cholerae
  MIC: 50 µg/mL (≈ 151 µM)
Streptococcus
  MIC: 50 µg/mL (≈ 151 µM)
Escherichia coli [5]
  MIC: 25 µg/mL (≈ 75.4 µM)

## Cc1ccc(C2C/C(=N\N3C(=O)CNC3=S)C(C)(C)C(c3ccc(C)cc3)N2)cc1 (configuration not stated)
Vibrio cholerae
  MIC: 25 µg/mL (≈ 59.4 µM)
Aspergillus flavus [1]
  MIC: 25 µg/mL (≈ 59.4 µM)
Candida [2]
  MIC: 6.25 µg/mL (≈ 14.9 µM)
Pseudomonas aeruginosa
  MIC: 100 µg/mL (≈ 238 µM)
Staphylococcus aureus [4]
  MIC: 25 µg/mL (≈ 59.4 µM)
Candida albicans
  MIC: 25 µg/mL (≈ 59.4 µM)
Candida [3]
  MIC: 12.5 µg/mL (≈ 29.7 µM)
Streptococcus
  MIC: 25 µg/mL (≈ 59.4 µM)
Escherichia coli [5]
  MIC: 50 µg/mL (≈ 119 µM)

## O=C1CNC(=S)N1N=C1CC(c2ccccc2)NC(c2ccccc2)C1 (configuration not stated)
Vibrio cholerae
  MIC: 50 µg/mL (≈ 137 µM)
Aspergillus flavus [1]
  MIC: 12.5 µg/mL (≈ 34.3 µM)
Candida [2]
  MIC: 50 µg/mL (≈ 137 µM)
Pseudomonas aeruginosa
  MIC: 50 µg/mL (≈ 137 µM)
Staphylococcus aureus [4]
  MIC: 100 µg/mL (≈ 274 µM)
Candida albicans
  MIC: 12.5 µg/mL (≈ 34.3 µM)
Candida [3]
  MIC: 100 µg/mL (≈ 274 µM)
Streptococcus
  MIC: 50 µg/mL (≈ 137 µM)
Escherichia coli [5]
  MIC: 50 µg/mL (≈ 137 µM)

## COc1ccc(C2CC(=NN3C(=O)CNC3=S)CC(c3ccc(OC)cc3)N2)cc1 (configuration not stated)
Vibrio cholerae
  MIC: 100 µg/mL (≈ 236 µM)
Aspergillus flavus [1]
  MIC: 12.5 µg/mL (≈ 29.4 µM)
Candida [2]
  MIC: 6.25 µg/mL (≈ 14.7 µM)
Candida [6]
  MIC: inactive
Pseudomonas aeruginosa
  MIC: 100 µg/mL (≈ 236 µM)
Staphylococcus aureus [4]
  MIC: 50 µg/mL (≈ 118 µM)
Candida albicans
  MIC: 12.5 µg/mL (≈ 29.4 µM)
Streptococcus
  MIC: 100 µg/mL (≈ 236 µM)
Escherichia coli [5]
  MIC: 50 µg/mL (≈ 118 µM)

## Cc1ccc(C2CC(=NN3C(=O)CNC3=S)CC(c3ccc(C)cc3)N2)cc1 (configuration not stated)
Vibrio cholerae
  MIC: 100 µg/mL (≈ 255 µM)
Aspergillus flavus [1]
  MIC: 6.25 µg/mL (≈ 15.9 µM)
Candida [2]
  MIC: 6.25 µg/mL (≈ 15.9 µM)
Staphylococcus aureus [7]
  MIC: inactive
Pseudomonas aeruginosa
  MIC: 25 µg/mL (≈ 63.7 µM)
Candida albicans
  MIC: 12.5 µg/mL (≈ 31.8 µM)
Candida [3]
  MIC: 6.25 µg/mL (≈ 15.9 µM)
Streptococcus
  MIC: 100 µg/mL (≈ 255 µM)
Escherichia coli [5]
  MIC: 200 µg/mL (≈ 510 µM)

## CC1(C)/C(=N/N2C(=O)CNC2=S)CC(c2ccc(Cl)cc2)NC1c1ccc(Cl)cc1 (configuration not stated)
Vibrio cholerae
  MIC: 12.5 µg/mL (≈ 27.1 µM)
Aspergillus flavus [1]
  MIC: 25 µg/mL (≈ 54.2 µM)
Candida [2]
  MIC: 50 µg/mL (≈ 108 µM)
Pseudomonas aeruginosa
  MIC: 25 µg/mL (≈ 54.2 µM)
Staphylococcus aureus [4]
  MIC: 25 µg/mL (≈ 54.2 µM)
Candida albicans
  MIC: 50 µg/mL (≈ 108 µM)
Candida [3]
  MIC: 50 µg/mL (≈ 108 µM)
Streptococcus
  MIC: 12.5 µg/mL (≈ 27.1 µM)
Escherichia coli [5]
  MIC: 50 µg/mL (≈ 108 µM)

## CC1(C)/C(=N/N2C(=O)CNC2=S)CC(c2ccc(F)cc2)NC1c1ccc(F)cc1 (configuration not stated)
Vibrio cholerae
  MIC: 6.25 µg/mL (≈ 14.6 µM)
Aspergillus flavus [1]
  MIC: 25 µg/mL (≈ 58.3 µM)
Candida [2]
  MIC: 50 µg/mL (≈ 117 µM)
Pseudomonas aeruginosa
  MIC: 6.25 µg/mL (≈ 14.6 µM)
Staphylococcus aureus [4]
  MIC: 12.5 µg/mL (≈ 29.2 µM)
Candida albicans
  MIC: 50 µg/mL (≈ 117 µM)
Candida [3]
  MIC: 50 µg/mL (≈ 117 µM)
Streptococcus
  MIC: 6.25 µg/mL (≈ 14.6 µM)
Escherichia coli [5]
  MIC: 6.25 µg/mL (≈ 14.6 µM)

## CC1/C(=N/N2C(=O)CNC2=S)CC(c2ccc(Cl)cc2)NC1c1ccc(Cl)cc1 (configuration not stated)
Vibrio cholerae
  MIC: 50 µg/mL (≈ 112 µM)
Aspergillus flavus [1]
  MIC: 12.5 µg/mL (≈ 27.9 µM)
Candida [2]
  MIC: 50 µg/mL (≈ 112 µM)
Pseudomonas aeruginosa
  MIC: 50 µg/mL (≈ 112 µM)
Staphylococcus aureus [4]
  MIC: 6.25 µg/mL (≈ 14 µM)
Candida albicans
  MIC: 50 µg/mL (≈ 112 µM)
Candida [3]
  MIC: 12.5 µg/mL (≈ 27.9 µM)
Streptococcus
  MIC: 50 µg/mL (≈ 112 µM)
Escherichia coli [5]
  MIC: 50 µg/mL (≈ 112 µM)

## COc1ccc(C2C/C(=N\N3C(=O)CNC3=S)C(C)(C)C(c3ccc(OC)cc3)N2)cc1 (configuration not stated)
Vibrio cholerae
  MIC: 50 µg/mL (≈ 110 µM)
Aspergillus flavus [1]
  MIC: 6.25 µg/mL (≈ 13.8 µM)
Candida [2]
  MIC: 25 µg/mL (≈ 55.2 µM)
Escherichia coli [8]
  MIC: inactive
Pseudomonas aeruginosa
  MIC: 50 µg/mL (≈ 110 µM)
Staphylococcus aureus [4]
  MIC: 200 µg/mL (≈ 442 µM)
Candida albicans
  MIC: 12.5 µg/mL (≈ 27.6 µM)
Candida [3]
  MIC: 6.25 µg/mL (≈ 13.8 µM)
Streptococcus
  MIC: 50 µg/mL (≈ 110 µM)

## CC1/C(=N/N2C(=O)CNC2=S)CC(c2ccc(F)cc2)NC1c1ccc(F)cc1 (configuration not stated)
Vibrio cholerae
  MIC: 12.5 µg/mL (≈ 30.2 µM)
Aspergillus flavus [1]
  MIC: 6.25 µg/mL (≈ 15.1 µM)
Candida [2]
  MIC: 12.5 µg/mL (≈ 30.2 µM)
Pseudomonas aeruginosa
  MIC: 6.25 µg/mL (≈ 15.1 µM)
Staphylococcus aureus [4]
  MIC: 6.25 µg/mL (≈ 15.1 µM)
Candida albicans
  MIC: 6.25 µg/mL (≈ 15.1 µM)
Candida [3]
  MIC: 6.25 µg/mL (≈ 15.1 µM)
Streptococcus
  MIC: 12.5 µg/mL (≈ 30.2 µM)
Escherichia coli [5]
  MIC: 12.5 µg/mL (≈ 30.2 µM)

## Cc1ccc(C2C/C(=N\N3C(=O)CNC3=S)C(C)C(c3ccc(C)cc3)N2)cc1 (configuration not stated)
Vibrio cholerae
  MIC: 50 µg/mL (≈ 123 µM)
Aspergillus flavus [1]
  MIC: 12.5 µg/mL (≈ 30.7 µM)
Candida [2]
  MIC: 6.25 µg/mL (≈ 15.4 µM)
Pseudomonas aeruginosa
  MIC: 50 µg/mL (≈ 123 µM)
Staphylococcus aureus [4]
  MIC: 25 µg/mL (≈ 61.5 µM)
Candida albicans
  MIC: 50 µg/mL (≈ 123 µM)
Candida [3]
  MIC: 12.5 µg/mL (≈ 30.7 µM)
Streptococcus
  MIC: 50 µg/mL (≈ 123 µM)
Escherichia coli [5]
  MIC: 50 µg/mL (≈ 123 µM)

## O=C1CNC(=S)N1N=C1CC(c2ccc(F)cc2)NC(c2ccc(F)cc2)C1 (configuration not stated)
Vibrio cholerae
  MIC: 6.25 µg/mL (≈ 15.6 µM)
Aspergillus flavus [1]
  MIC: 12.5 µg/mL (≈ 31.2 µM)
Candida [2]
  MIC: 50 µg/mL (≈ 125 µM)
Pseudomonas aeruginosa
  MIC: 6.25 µg/mL (≈ 15.6 µM)
Staphylococcus aureus [4]
  MIC: 50 µg/mL (≈ 125 µM)
Candida albicans
  MIC: 50 µg/mL (≈ 125 µM)
Candida [3]
  MIC: 50 µg/mL (≈ 125 µM)
Streptococcus
  MIC: 6.25 µg/mL (≈ 15.6 µM)
Escherichia coli [5]
  MIC: 12.5 µg/mL (≈ 31.2 µM)

## CC1(C)/C(=N/N2C(=O)CNC2=S)CC(c2ccccc2)NC1c1ccccc1 (configuration not stated)
Vibrio cholerae
  MIC: 25 µg/mL (≈ 63.7 µM)
Candida [2]
  MIC: 100 µg/mL (≈ 255 µM)
Pseudomonas aeruginosa
  MIC: 100 µg/mL (≈ 255 µM)
Staphylococcus aureus [4]
  MIC: 100 µg/mL (≈ 255 µM)
Candida albicans
  MIC: 50 µg/mL (≈ 127 µM)
Candida [3]
  MIC: 50 µg/mL (≈ 127 µM)
Streptococcus
  MIC: 25 µg/mL (≈ 63.7 µM)
Aspergillus flavus [9]
  MIC: inactive
Escherichia coli [5]
  MIC: 100 µg/mL (≈ 255 µM)

## O=C1CNC(=S)N1N=C1CC(c2ccc(Cl)cc2)NC(c2ccc(Cl)cc2)C1 (configuration not stated)
Vibrio cholerae
  MIC: 6.25 µg/mL (≈ 14.4 µM)
Aspergillus flavus [1]
  MIC: 50 µg/mL (≈ 115 µM)
Candida [2]
  MIC: 12.5 µg/mL (≈ 28.8 µM)
Pseudomonas aeruginosa
  MIC: 6.25 µg/mL (≈ 14.4 µM)
Staphylococcus aureus [4]
  MIC: 50 µg/mL (≈ 115 µM)
Candida albicans
  MIC: 50 µg/mL (≈ 115 µM)
Candida [3]
  MIC: 25 µg/mL (≈ 57.7 µM)
Streptococcus
  MIC: 6.25 µg/mL (≈ 14.4 µM)
Escherichia coli [5]
  MIC: 12.5 µg/mL (≈ 28.8 µM)
